Legend:
[1] = Pharmacokinetics of cystamine and D4-cystamine in rats (monomer measured in plasma); format: in vivo, Sprague Dawley rats
Protocol: Pharmacokinetics of Cystamine in Rats.
In the experimental study 5 Sprague Dawley rats were used: 2 rats were used for control (non-deuterated cystamine) and 3 rats were used for the study compound (D4 cystamine).
Blood was sampled at 0, 20 min, 40 min, 1, 2, 4 and 6 hours (7 total samples per rat). Approximately 160 μl of whole blood was collected into an EDTA retro-orbital blood collection tube and briefly mixed to insure uniform mixing of EDTA. The blood was quickly transferred into a clean ependorf tube containing 40 μl of fresh 150 mM NEM, mixed and incubated at room temperature for 10 minutes. The Eppendorf tube was centrifuged at 3000 rmp for 5 minute sto pellet RBC and collect plasma into a fresh Eppendorf tube. The volume of the plasma was measured by pipette. Formic acid was added to the plasma to a concentration of 1% and mixed.

cystinotic fibroblasts = experiment: Intracellular NEM-cysteamine, NEM-cysteine, cystamine and mixed disulfide levels in cystinotic fibroblasts; format: cell-based, human; details: washout period
Protocol: In vitro experiments with isotopically enriched cystamine in cystinotic fibroblasts. Fibroblasts from a de-identified cystinotic patient were split 3× from 2 plates into 36 plates. Three different drugs were used for the experiments: cystamine (non-labeled), d2-cystamine, and d4-cystamine. There were two time series for each drug. The first was with constant drug incubation and included: 0, 10 min, 30 min, 1 h, 3 h, and 5 h. The other series included a washout after 3 h drug incubation, using fresh media following a PBS wash, and included the timepoints: 0, 30 min, 1 h, 3 h, 5 h, and 17 h. A direct quench and extraction technique were used for harvesting all cells to minimize further oxidation and metabolism. This included 2× washes with PBS that included 5 mM N-ethylmaleimide for trapping free thiol groups, and then scraping the plates with an acidified organic solvent extraction solution containing both d4-cystine and d4-cysteamine (plus d-8 cystamine) as internal standards. All samples were run on an API 4500 triple quadrupole LC-MS/MS, with selective reaction monitoring (SRM/MRM) for the following compounds of interest: cystine, NEM-cysteamine, NEM-cysteine, cystamine, and 2-(methylthio)ethylamine. All data fit well to single exponential curves (either decay or association), except where mentioned.
NEM-cysteamine and NEM-cysteine during constant incubation. Fibroblast cultures were exposed to drug (either cystamine, d2-cystamine, or d4-cystamine) and harvested as described on page 2 for the cystine depletion curve. NEM-cysteamine (or NEM-d1-cysteamine or NEM-d2-cysteamine) was measured for each respective plate and normalized against the signal for d4-cystine.
NEM-cysteamine during washout. Fibroblast cultures were exposed to drug (either cystamine, d2-cystamine, or d4-cystamine) for 3 h were then exposed to media for various timepoints and harvested as previously described.
NEM-cysteine during washout. Fibroblast cultures were exposed to drug (either cystamine, d2-cystamine, or d4-cystamine) for 3 h were then exposed to media for various timepoints and harvested as previously described.
Cystamine during constant drug incubation. Fibroblast cultures were exposed to drug (either cystamine, d2-cystamine, or d4-cystamine) for various timepoints following harvesting as described earlier. Cystamine could be measured in the non-labeled cystamine incubation as well as the d4-cystamine incubation. d2-cystamine could not be accurately measured due to a strong background interference signal corresponding to that mass. No cystamine could be measured in the washout experiments.

[2] = tested on: C57BL/6 male mice on CDAHFD diet; experiment: In vivo NASH model, treatment phase (8 weeks CDAHFD, then 2 weeks daily gavage); details: for Fatty deposits / fat globules in liver, H&E staining: 200 mg/kg/day
Protocol: Liver Inflammatory Cells. CD11b stains macrophages and microglia. CD11b staining of liver tissue was taken after 10 weeks of CDAHFD in three groups of mice. […] At 8 weeks, treatment group 2 (“C2”) mice started gavage feeding with D2-Cystamine at 200 mg/kg/day once daily gavage, and treatment group 3 (“C3”) mice received D4-Cystamine at 200 mg/kg/day by once daily gavage.
In vivo NASH Models. NASH models from normal C57BL/6 male mice on CDAHFD diet (choline deficient, L-amino acid defined, high fat diet with restricted amount of methionine) were used. Two deuterated cystamine molecules were tested:
Two phase study was performed: (1) A prevention and (2) a treatment phase. 48 Mice were separated into nine groups of mice as described below. Histology at end of each study was performed looking for specific features of NASH (steatohepatitis, ballooning, fibrosis). The primary endpoint was plasma ALT measurement. Gene expression studies for fibrosis, inflammation were also performed.
Prevention Phase. Group 1: Control mice on CDAHFD for 8 weeks. Blood drawn at 0, 4, and 8 weeks. Group 2: Mice on CDAHFD plus D2 at 200 mg/kg/day for 8 weeks. Blood drawn at 0, 4, and 8 weeks. Group 3: Mice on CDAHFD plus D4 at 200 mg/kg/day for 8 weeks. Blood drawn at 0, 4, and 8 weeks. Group 4: Control mice (n=4) continue on CDAHFD for 2 weeks. Blood at baseline and at 2 weeks. Liver histology at 2 weeks. Group 5: Mice (n=4) on CDAHFD for 2 weeks plus D2 at 200 mg/kg/day administered via daily gavage. Blood at 0 and 2 weeks and histology at 2 weeks. Group 6: Mice (n=4) on CDAHFD for 2 weeks plus D4 at 200 mg/kg/day administered via daily gavage. Blood at 0 and 2 weeks and histology at 2 weeks.
Treatment Study Results. Groups 4, 5 and 6 mice received 8 weeks of CDAHDF diet before beginning treatment with deuterated compounds of the disclosure. During the treatment phase the mice continued to receive CDAHDF diet. Four mice were set in each group: control (C1) not receiving any drug; treatment (C2) receiving 200 mg/kg of cystamine D2 by once daily gavage; and treatment (C3) receiving 200 mg/kg cystamine D4 by once daily gavage.

[3] = 200 mg/kg once daily gavage, 2 weeks

AUC relative to non-deuterated cystamine [1]: at least 1.6 ×
Cmax relative to non-deuterated cystamine [1]: ~2 ×
AUC of derived monomer, comparison in words ([1]; vs cystamine derived cysteamine): much higher
Structure (SMILES): [2H]C([2H])(CN)SSC([2H])([2H])CN [D4-Cystamine, 2,2′-disulfanediylbis(ethan-2,2-d2-1-aminium) chloride]
NEM-cysteine level after 3 h incubation and washout (cystinotic fibroblasts): rise and increase
ALT versus untreated control group [2, 3]: significantly lower
Ratio of body weight to liver weight (BW/LW) at end of study versus control [2, 3]: statistically significant
Hepatic fibrosis, Sirius Red staining of liver sections ([2]; 200 mg/kg once daily gavage, 2 weeks, listed as D4): significant reduction in the amount of positive liver staining
Hepatic fibrosis, Sirius Red staining of liver sections ([2]; 200 mg/kg once daily gavage, 2 weeks, listed as cystamine D4): very significant reduction in hepatic fibrosis
Number of CD11b positive cells in liver tissue versus control group ([2]; 200 mg/kg/day once daily gavage, 2 weeks): statistically significant reduction
Fatty deposits / fat globules in liver, H&E staining ([2]; 2 weeks): reduction in fatty globules
Fatty deposits / fat globules in liver, H&E staining ([2]; 2 weeks, listed as D4): reduced fatty deposits compared to control
Pericentral fibrosis in liver ([2]; Sirius Red staining, 2 weeks): less pericentral fibrosis
Collagen 1 expression, qPCR, versus control ([2]; liver, 2 weeks of treatment): significant reduction

Source: patent US12391643B2, “Substituted amino-thiol and amino-disulfide compounds, and uses thereof” (The Regents of the University of California, priority 2019, dated 2025)
